US6136781A, “LH-RH receptor antagonists” (Takeda Chemical Industries, Ltd., priority 1995, dated 2000)
Square brackets hold non-standard residues; d marks the D form. Peptide text beside a SMILES is read from it. * marks the point of attachment. Naphthalene1sulfonyl = O=S(=O)(c1cccc2ccccc12)*; Gly(2-thienyl) = N[C@H](C(=O)O)c1cccs1; Hexanoyl(6-Ph) = O=C(CCCCCc1ccccc1)*; Mtr = COc1cc(C)c(S(=O)(=O)*)c(C)c1C; Butanoyl(4-Ph) = O=C(CCCc1ccccc1)*; 1Naphthoyl = O=C(c1cccc2ccccc12)*; NHPhenethyl = c1ccc(CCN*)cc1; Phg = N[C@H](C(=O)O)c1ccccc1; Tos = Cc1ccc(S(=O)(=O)*)cc1; Bz = O=C(c1ccccc1)*

system: not given; experiment: not given; conditions: amide bond; 15-membered ring; PyBOP/DIEA; DMF; 25.0 °C; 2 steps

Compound | ring closure, isolated yield
cyclo(-Phe-D-Arg(Tos)-Phe-D-Trp-Trp-) | 83%
cyclo(-Phe-D-Arg(Tos)-Phe-D-Phe-Trp-) | 70.6%

system: not given; experiment: not given; conditions: amide bond; 15-membered ring; DIEA (active ester); DMF; 3.18 mM; 5 steps

Compound | ring closure, yield after HPLC
cyclo(-Arg-D-Lys(COCH2 CH2 CH2 Ph)-Tyr-D-Trp-Leu-) | 28.7%

same assay, conditions: amide bond; 15-membered ring; ONB active ester/DIEA; DMF; 0.93 mM; 5 steps

Compound | ring closure, yield after HPLC
cyclo(-Arg-D-Glu(NHCH2 CH2 Ph)-Lys(COPh)-D-Trp-Trp-) | 13.9%

system: not given; experiment: not given; conditions: amide bond; 15-membered ring; DIEA/AcOH; DMF; resin; with chain assembly

Compound | ring closure, crude yield
cyclo(-pClPhe-D-Arg(Tos)-Nal(2)-D-Ala-Trp-) | 92.8%
cyclo(-pClPhe-Arg(Tos)-Nal(2)-D-Ala-Trp-) | 59.1%

same assay, conditions: amide bond; 15-membered ring; ONB active ester; 4 steps

Compound | ring closure, crude yield
Cyclo(-Arg(Tos)-D-Glu(NHCH2 CH2 Ph)-Lys(Cl-Z)-D-Trp-Leu-) | 72.3%

biological target: T1, Human LH-RH Receptor (Homo sapiens, UniProt P30968); experiment: Inhibition of bonding of 125I-leuprorelin to human LH-RH receptor (receptor assay); assay type: binding; conditions: human LH-RH receptor-expressing CHO cell membrane fraction, 25° C. for 60 minutes, Hill plotting
T1 construct: expressed in transfected cells; host or cells: CHO cells (Chinese hamster ovary), membrane fraction
T1 sequence (P30968 1-328): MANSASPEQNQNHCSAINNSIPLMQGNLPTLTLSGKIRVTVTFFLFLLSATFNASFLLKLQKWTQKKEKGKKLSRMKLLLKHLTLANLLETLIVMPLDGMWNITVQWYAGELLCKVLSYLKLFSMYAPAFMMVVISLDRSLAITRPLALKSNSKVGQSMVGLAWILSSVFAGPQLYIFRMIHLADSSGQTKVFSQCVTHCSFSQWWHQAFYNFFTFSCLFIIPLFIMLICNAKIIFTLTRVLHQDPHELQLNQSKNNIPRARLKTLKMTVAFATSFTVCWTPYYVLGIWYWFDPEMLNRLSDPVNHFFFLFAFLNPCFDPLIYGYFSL
Method: Human LH-RH receptor-expressing CHO cells (10^9 cells) were floated in a phosphate buffer saline containing 5 mM EDTA (PBS-EDTA) and subjected to centrifugation at 100×g for 5 minutes. 10 ml of a cell homogenate buffer (10 mM NaHCO3, 5 mM EDTA, pH 7.5) was added to the resulting cell pellets, and the resulting mixture was then homogenized in a polytron homogenizer. This was thereafter centrifuged at 400×g for 15 minutes, and the resulting supernatant was collected in an ultra-centrifuger and again centrifuged at 100,000×g for 1 hour to obtain a precipitate of the cell membrane fraction. This precipitate was suspended in 2 ml of an assay buffer and centrifuged at 100,000×g for 1 hour. The cell membrane fraction thus collected as a precipitate was again suspended in 20 ml of an assay buffer, put into plural vials and stored at -80° C. These were individually thawed before use.
Determination of Percentage of Inhibition of Bonding of ^125 I-Leuprorelin to Human LH-RH Receptor
The human LH-RH receptor-expressing CHO cell membrane fraction as prepared in Reference Example 2 was diluted with an assay buffer to have a concentration of 200 μg/ml and put into plural tubes at 188 μl/tube. Where the human LH-RH receptor-expressing CHO cell membrane fraction was used, 2 μl of a solution of the test compound (2 mM) as dissolved in 60%-DMSO and 10 μl of ^125 I-leuprorelin (38 nM) were added to the dilution of the fraction. In order to measure the maximum amount of the ^125 I-leuprorelin as bonded to the receptor, a reaction system comprising 2 μl of 60%-DMSO and 10 μl of ^125 -leuprorelin (38 nM) was prepared. In order to measure the amount of ^125 I-leuprorelinas non-specifically bonded to the receptor, a reaction system comprising 2 μl of leuprorelin (100 μM) as dissolved in 60%-DMSO and 10 μl of ^125 I-leuprorelin (38 nM) was prepared.
Each system of the present invention comprising the human LH-RH receptor-expressing CHO cell membrane fraction was reacted at 25° C. for 60 minutes. After the reaction, the reaction mixture was filtered under suction through a polyethyleneimine-treated Wattman glass filter (GF-F). After the filtration, the radioactivity of ^125 I-leuprorelin in the residue remained on the filter paper was measured using a g-counter.
From the data measured, a value of [(TB-SB)/(TB-NSB)]×100 (where SB is the radioactivity of the test system to which the test compound had been added; TB is the radioactivity of the maximum bonding system; and NSB is the radioactivity of the non-specific bonding system) was calculated, which indicates the bonding-inhibition percentage (%) of the compound tested. […] The results obtained are shown in [Table 1].

Compound | IC50
C[C@H]1NC(=O)[C@H](Cc2ccccc2)NC(=O)[C@@H](CCCNC(=N)N)NC(=O)[C@H](c2ccccc2)NC(=O)[C@H](Cc2c[nH]c3ccccc23)NC1=O [Example 55, cyclo(-Phg-D-Arg-Phe-D-Ala-Trp-)] (cyclo(F[dA]W[Phg][dR])) | 0.2 µM
CC(C)C[C@@H]1NC(=O)[C@@H](Cc2c[nH]c3ccccc23)NC(=O)[C@H](Cc2ccc(O)cc2)NC(=O)[C@@H](CCCCNC(=O)CCCCCc2ccccc2)NC(=O)[C@H](CCCNC(=N)N)NC1=O [Example 20, cyclo(-Arg-D-Lys (COCH2 CH2 CH2 CH2 CH2 Ph)-Tyr-D-Trp-Leu-)] (cyclo(LR[dK](Hexanoyl(6-Ph))Y[dW])) | 0.1 µM
CC(C)C[C@@H]1NC(=O)[C@@H](Cc2c[nH]c3ccccc23)NC(=O)[C@H](CCCCNC(=O)c2ccccc2)NC(=O)[C@@H](CCC(=O)NCCc2ccccc2)NC(=O)[C@H](CCCNC(=N)N)NC1=O [Example 21, cyclo(-Arg-D-Glu(NHCH2 CH2 Ph)-Lys(COPh)-D-Trp-Leu-)] (cyclo(K(Bz)[dW]LR[dE](NHPhenethyl))) | 0.4 µM
Cc1ccc(S(=O)(=O)NC(=N)NCCC[C@H]2NC(=O)[C@H](C)NC(=O)[C@H](Cc3c[nH]c4ccccc34)NC(=O)[C@@H](C)NC(=O)[C@H](Cc3ccccc3)NC2=O)cc1 [Example 51, cyclo(-Ala-D-Arg(Tos)-Phe-D-Ala-Trp-)] (cyclo(A[dR](Tos)F[dA]W)) | 0.2 µM
C[C@H]1NC(=O)[C@H](Cc2ccccc2)NC(=O)[C@@H](CCCNC(=N)N)NC(=O)[C@H](Cc2ccccc2)NC(=O)[C@H](Cc2c[nH]c3ccccc23)NC1=O [Example 36, cyclo(-Phe-D-Arg-Phe-D-Ala-Trp-)] (cyclo(F[dA]WF[dR])) | 0.9 µM
CC(C)C[C@@H]1NC(=O)[C@@H](Cc2c[nH]c3ccccc23)NC(=O)[C@H](CCCNC(=N)N)NC(=O)[C@@H](Cc2ccc(O)cc2)NC(=O)[C@@H](CCCCNS(=O)(=O)c2cccc3ccccc23)NC1=O [Example 23, cyclo(-D-Tyr-Arg-D-Trp-Leu-D-Lys(SO2 Nap(1))-)] (cyclo(L[dK](Naphthalene1sulfonyl)[dY]R[dW])) | 0.9 µM
Cc1ccc(S(=O)(=O)NC(=N)NCCC[C@H]2NC(=O)[C@H](c3ccccc3)NC(=O)[C@H](Cc3c[nH]c4ccccc34)NC(=O)[C@@H](C)NC(=O)[C@H](Cc3ccccc3)NC2=O)cc1 [Example 48, cyclo(-Phg-D-Arg(Tos)-Phe-D-Ala-Trp-)] (cyclo(F[dA]W[Phg][dR](Tos))) | 0.07 µM
CC(C)C[C@@H]1NC(=O)[C@@H](Cc2c[nH]c3ccccc23)NC(=O)[C@H](Cc2ccc(O)cc2)NC(=O)[C@@H](CCCCNC(=O)CCCc2ccccc2)NC(=O)[C@H](CCCNC(=N)N)NC1=O [Example 19, cyclo(-Arg-D-Lys(COCH2 CH2 CH2 Ph)-Tyr-D-Trp-Leu-)] (cyclo(LR[dK](Butanoyl(4-Ph))Y[dW])) | 1 µM
CC(C)C[C@@H]1NC(=O)[C@@H](Cc2c[nH]c3ccccc23)NC(=O)[C@H](CCCCNC(=O)c2cccc3ccccc23)NC(=O)[C@@H](CCC(=O)NCCc2ccccc2)NC(=O)[C@H](CCCNC(=N)N)NC1=O [Example 31, cyclo(-Arg-D-Glu(NHCH2 CH2 Ph)-Lys(CONap(1))-D-Trp-Leu-)] (cyclo(K(1Naphthoyl)[dW]LR[dE](NHPhenethyl))) | 0.2 µM
CC(C)C[C@@H]1NC(=O)[C@@H](Cc2c[nH]c3ccccc23)NC(=O)[C@H](Cc2ccc(O)cc2)NC(=O)[C@@H]2CCCN2C(=O)[C@H](Cc2c[nH]c3ccccc23)NC(=O)[C@H](CCCNC(=N)N)NC1=O [Reference Example 1, cyclo(-Tyr-D-Trp-Leu-Arg-Trp-Pro-), reference compound] (cyclo(LRWPY[dW])) | 10 µM
Cc1ccc(S(=O)(=O)NC(=N)NCCC[C@H]2NC(=O)[C@H](c3cccs3)NC(=O)[C@H](Cc3c[nH]c4ccccc34)NC(=O)[C@@H](C)NC(=O)[C@H](Cc3ccccc3)NC2=O)cc1 [Example 54, cyclo(-Thg(2)-D-Arg(Tos)-Phe-D-Ala-Trp-)] (cyclo(F[dA]W[Gly(2-thienyl)][dR](Tos))) | 0.3 µM
C[C@H]1NC(=O)[C@H](Cc2ccccc2)NC(=O)[C@H](CCCNC(=N)N)NC(=O)[C@H](Cc2ccccc2)NC(=O)[C@H](Cc2c[nH]c3ccccc23)NC1=O [Example 43, cyclo(-Phe-Arg-Phe-D-Ala-Trp-)] (cyclo(FRF[dA]W)) | 1 µM
Cc1ccc(S(=O)(=O)NC(=N)NCCC[C@H]2NC(=O)[C@H](c3ccccc3)NC(=O)[C@H](Cc3ccccc3)NC(=O)[C@@H](C)NC(=O)[C@H](Cc3ccccc3)NC2=O)cc1 [Example 53, cyclo(-Phg-D-Arg(Tos)-Phe-D-Ala-Phe-)] (cyclo(F[Phg][dR](Tos)F[dA])) | 0.1 µM
COc1cc(C)c(S(=O)(=O)NC(=N)NCCC[C@H]2NC(=O)[C@H](Cc3ccccc3)NC(=O)[C@H](Cc3c[nH]c4ccccc34)NC(=O)[C@@H](C)NC(=O)[C@H](Cc3ccccc3)NC2=O)c(C)c1C [Example 35, cyclo(-Phe-D-Arg-(Mtr)-Phe-D-Ala-Trp-)] (cyclo(F[dA]WF[dR](Mtr))) | 0.4 µM
Cc1ccc(S(=O)(=O)NC(=N)NCCC[C@H]2NC(=O)[C@H](Cc3ccccc3)NC(=O)[C@H](Cc3c[nH]c4ccccc34)NC(=O)[C@@H](C)NC(=O)[C@H](Cc3ccccc3)NC2=O)cc1 [Example 37, cyclo(-Phe-D-Arg(Tos)-Phe-D-Ala-Trp-)] (cyclo(F[dA]WF[dR](Tos))) | 0.3 µM
CC(C)C[C@@H]1NC(=O)[C@@H](Cc2c[nH]c3ccccc23)NC(=O)[C@H](Cc2ccc(O)cc2)NC(=O)[C@@H](CCCCNS(=O)(=O)c2cccc3ccccc23)NC(=O)[C@H](CCCNC(=N)N)NC1=O [Example 1, cyclo(-Arg-D-Lys(SO2 Nap(1))-Tyr-D-Trp-Leu-)] (cyclo(LR[dK](Naphthalene1sulfonyl)Y[dW])) | 0.9 µM
